Legend:
Assay type in all cases: cell-based, human
melanoma TILs = assay: IFNγ ELISPOT of melanoma TILs incubated with synthetic peptide; details: for IFNγ production by TILs (ELISPOT response to peptide): 15 HLA-A*02:01-expressing melanoma TILs, peptide 10 μM
Text: To examine whether the detected HLA ligands are recognized by tumor-infiltrating lymphocytes (TILs) and if these TILs can kill cells presenting ED. For this analysis, matched autologous pairs of melanoma TILs and tumor cell lines were used. CCNI-ED peptide and its WT counterpart were synthesized and evaluated for their ability to activate TILs generated from human melanoma tumours.
Melanoma TILs were generated as described before. Briefly, melanoma tumor samples were either cut into 1-3 mm^2 fragments and put in culture in a tissue-treated 24-well plate, in complete TIL media (TIL-CM) consisting of RPMI 1640 (Gibco, 61871), 10% of human AB serum (GEMINI, 100-512), 0.1% of 2-mercaptoethanol (Gibco, 21985023), 1% of HEPES (Corning, 25-060), 1% sodium pyruvate (Invitrogen/Life Technologies, 11360-070), 1% of Glutomax (Gibco, 35050061), 1% PenStrep (ThermoFisher, 15070063) plus 6000 U/mL of human IL-2 or put in culture after the tumor samples were enzymatically digested by collagenase for 1 h at 37° C. followed by centrifugation using a multi-layer Ficoll gradient (100% and 75%, Ficoll-Paque PLUS, GE, 17-1440-02) where the 100% layer was collected for TILs. Every 3 days, half of the medium was replaced with fresh medium and the TIL culture was split to keep the cells at a density of 1×10^6/mL. TILs were expanded between 2 to 5 weeks, depending on the TIL lines. To increase the number of TILs available for experiments, the lines were further expanded using the rapid expansion protocol (REP). In brief, 1.5×10^5 primary TILs generated above were cultured with 27×10^6 feeder cells together with 0.6 mg soluble anti-CD3 monoclonal antibody (OKT3 clone, Muronomab—Abbott Labs). The feeder cells are peripheral blood mononuclear (PBMC) cells mixed from at least 5 healthy donors and irradiated at 5,000 cGy for 20 minutes prior to culture in order to prevent their proliferation during the REP. 6,000 U/mL IL-2 was added at the second day and half of the medium was recovered and replaced with fresh medium containing 50% of TIL-CM and 50% of AIM-V medium (Invitrogen, 12055-083) every 3 days to keep TIL density between 0.5-2×10^6/mL. The cultured TILs were harvested at day 14 for functional analysis or frozen in human serum with 10% DMSO (Thermo Fisher, 67-68-5). Autologous tumor cell lines were also established from the enzymatically digested tumours followed by the multi-layer Ficoll gradient where the 75% layer was collected and put in culture in complete tumor media (RPMI 1640, Gibco, 61871) containing 10% FBS, 1% HEPES (Corning, 25-060), 1% sodium pyruvate (Invitrogen/Life Technologies, 11360-070), 1% insulin/selenium/transferrin (Gibco, 51300), 0.2% MycoZap-PR (Lonza, VZA-2011). All tumor samples were HLA typed at the HLA-A locus in the MD Anderson HLA Typing Laboratory. […]

293-A2 cells = assay: IFNγ ELISPOT of Ted10 with peptide-pulsed or CCNI-transfected 293-A2 cells; details: 293-A2 cells pulsed with peptide
Protocol: To investigate this relationship on cellular level, CCNI-ED10-specific effector T cells (Ted10) were generated from HLA-A*02:01-expressing normal peripheral blood mononuclear cells (PBMCs) using an established method.
IFNγ Enzyme-linked immunospot (ELISPOT) assay was performed to detect T-cell responses. MultiScreen 96 well filter plates (Millipore, MAHAS4510) were coated over night at 4° C. with 75 μL/well of […] anti-human IFNγ capture antibody (Mabtech AB, 3420-3-1000). TILs or CCNI-ED specific T cells (Ted10) were thawed and cultured with 1000U of human IL-2/mL overnight. On the next day, before performing ELISPOT assay, T cells were starved with IL-2 free medium for 6 hours. […] After 18 hours of cultivation at 37° C. and 5% CO2, the plates were incubated with 1 ng/mL of Biotinylated anti-human IFNγ monoclonal antibody (Mabtech, 3420-6-1000) for one hour, stained with ExtrAvidine®-Alkaline phosphatase (Sigma-Aldrich, E2636) and IFNγ positive spots were detected with BCIP/NBT Membrane Alkaline Phosphatase Substrate (Sigma, 11697471001). Plates were scanned and counted using the ImmunoSpot® ELISPOT analyzer (Shaker Heights, Ohio) to determine the number of spots/well. […]

T2 cells = assay: Caspase3 based CTL killing assay, TIL2661 against peptide-pulsed T2 cells; details: T2 pulsed with 10 μM peptide, anti-caspase3 staining, flow cytometry
Text: T cells play a primary role in adaptive immunity against infections and tumorigenesis, and therapies based on manipulating T-cell activation have shown promise in cancer treatment. To determine the function of CCNI-ED specific T cells in mediating tumor cell killing, the HLA-A*02:01 expressing lymphoblast cell line T2, which is lacking expression of the transporter associated with antigen processing (TAP) and thus incapable of presenting endogenous peptides, were employed. The CCNI-WT or CCNI-ED peptide were pulsed onto T2 cells, co-cultured with TIL2661 in different ratios, and then measured T-cell mediated target cell death based on anti-caspase3 staining and subsequent flow cytometric quantification. […]
T cell-mediated cell killing was analyzed using a flow cytometry-based method by detecting T cell-induced caspase-3 cleavage in target cells. […] T cell-mediated caspase-3 cleavage was measured by intracellular staining with Cytofix/Cytoperm reagent (BD Biosciences, 554772) and PE conjugated anti-cleaved caspase-3 antibody (BD Bioscience, 550821) and the number of pre-apoptotic cells were determined by flow cytometry.

Row | Sequence | IFNγ ELISPOT response of TIL to peptide (melanoma TILs; TIL2576, parallel assay with the same TILs) | IFNγ production by Ted10 (ELISPOT) (293-A2 cells) | IFNγ production by TILs (ELISPOT response to peptide) (melanoma TILs; triplicates) | number of HLA-A*02:01-expressing TILs that responded (TIL2678, TIL2661, TIL2559) (melanoma TILs; IFNγ ELISPOT, triplicates) | TIL2661 mediated killing of peptide-pulsed T2 cells (T2 cells)
1 | LLDGFLATV (listed as Homo sapiens) [CCNI-ED9, RNA editing-derived HLA peptide, editing site CCNI R75G] | weakly reacted |  |  |  | 
2 | SLLDGFLATV (listed as Homo sapiens) [CCNI-ED10, RNA editing-derived HLA peptide, editing site CCNI R75G] |  | potently activated | strongly responded | 3 out of 15 | facilitated target killing
3 | SLLDRFLATV (listed as Homo sapiens) [CCNI-WT10, non-edited wildtype counterpart of CCNI-ED10, reference compound] |  |  | none of the TILs responded |  | CCNI-ED10, rather than CCNI-WT10, to T2 cells facilitated target killing

Reference: patent publication US20210172961A1, “METHODS FOR IDENTIFYING RNA EDITING-DERIVED EPITOPES THAT ELICIT IMMUNE RESPONSES IN CANCER” (Board of Regents, The University of Texas System, priority 2018, published 2021)
